Results as given in patent US9969775B2, “CGRP antagonist peptides” (Ferring B.V., priority 2015, dated 2018).
Numbered stars: 1 amine (or outer) side, 2 acyl side, 3 side chain; on linkers, the order of the positions; unused ones are H or OH. Bridge positions count the residues as written; N and C are the ends. Square brackets hold non-standard residues; d marks the D form. Peptide text beside a SMILES is read from it. * marks the point of attachment. Phe(2-CONH2) = NC(=O)c1ccccc1C[C@H](N)C(=O)O; X5 = O=C([C@H](Cc1ccc(CO)cc1)N[*:1])[*:2]; X3 = NCc1ccccc1C[C@H](N[*:1])C(=O)[*:2]; Imidazole4carbonyl = O=C(c1cnc[nH]1)*; Picolinoyl(5-F) = O=C(c1ccc(F)cn1)*; Orn(iPr) = CC(C)NCCC[C@H](N)C(=O)O; Oxazole2carbonyl = O=C(c1ncco1)*; 3Pal = N[C@@H](Cc1cccnc1)C(=O)O; Picolinoyl = O=C(c1ccccn1)*; ΔPro = O=C(O)[C@@H]1C=CCN1; Orn = NCCC[C@H](N)C(=O)O; X2 = Cc1n[nH]c(C(=O)*)n1; X8 = CC(C)NCCOCCOCC(=O)*

Columns and labels:
[1] = biological target: T1, hCGRP receptor (CALCRL:RAMP1) (Homo sapiens, UniProt O60894+Q16602); assay: CGRP receptor antagonist activity measured by cAMP assay (HTRF); type: cell-based; conditions: agonist human α-CGRP; for Emax: % MPE: percent of the maximal possible effect, read-out: hCGRP-R Efficacy Antag (%) Ave; for IC50: GeneBLAzer CALCRL:RAMP1-CRE-bla Freestyle 293F cells, 30 minutes, read-out: hCGRP-R IC50 Ave
T1 construct: host or cells: GeneBLAzer CALCRL:RAMP1-CRE-bla Freestyle 293F
T1 sequence (Q16602 23-461): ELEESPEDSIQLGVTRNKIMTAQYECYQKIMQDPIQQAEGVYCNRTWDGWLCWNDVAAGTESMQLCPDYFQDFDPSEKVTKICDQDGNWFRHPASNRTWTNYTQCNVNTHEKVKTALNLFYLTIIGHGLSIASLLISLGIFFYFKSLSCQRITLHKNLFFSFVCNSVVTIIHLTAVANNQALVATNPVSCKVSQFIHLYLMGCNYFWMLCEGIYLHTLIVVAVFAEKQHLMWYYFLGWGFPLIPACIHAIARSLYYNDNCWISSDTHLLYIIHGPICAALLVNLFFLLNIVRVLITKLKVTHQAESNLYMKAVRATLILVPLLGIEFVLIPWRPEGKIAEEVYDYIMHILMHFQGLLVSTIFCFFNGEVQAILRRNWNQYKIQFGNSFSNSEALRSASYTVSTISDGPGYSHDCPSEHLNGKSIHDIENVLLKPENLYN
T1 sequence (O60894 27-148): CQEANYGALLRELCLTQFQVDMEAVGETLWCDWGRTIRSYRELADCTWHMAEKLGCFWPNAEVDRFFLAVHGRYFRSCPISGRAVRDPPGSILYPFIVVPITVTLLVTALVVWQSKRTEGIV
Protocol: Example 6: CGRP Receptor Antagonist Activity Measured by cAMP Assay
CGRP receptor agonists increase intracellular cyclic adenosine mono-phosphate (cAMP). CGRP receptor antagonists can reduce the agonist effect. Antagonist activity was assessed by measurement of cyclic adenosine mono-phosphate (cAMP) using cell line stably expressing the hCGRP receptor (GeneBLAzer® CALCRL:RAMP1-CRE-bla Freestyle™ 293F, Invitrogen). hCGRP receptor expressing cells were maintained in DMEM high-glucose with GlutaMAX™ containing 10% (v/v) FBS, 0.1 mM NEAA, 25 mM HEPES, 5 ug/ml Blasticidin, 100 ug/ml Hygromycin, and 400 ug/ml Geneticin at 37° C. under 5% CO2 in a humidified atmosphere. For cAMP measurement, cells were washed once with 5 ml 1×PBS, cell maintenance media was replaced with compound buffer ((CB): DMEM containing 0.1% BSA and 0.5 mM IBMX), and flasks were incubated for 1 hour at 37° C. under 5% CO2 in a humidified atmosphere. Cells were removed from culture flasks using non-enzymatic cell dissociation buffer and harvested in CB. The reaction was performed in 384 well white small volume plates (Greiner) at a density of 10,000 cells/well. Cells were exposed to varying concentrations of antagonist compounds for 30 minutes in the presence of a fixed concentration of agonist (human α-CGRP). cAMP levels were measured using an HTRF (homogeneous time resolved fluorescence)-based competitive cAMP immunoassay (cAMP Dynamic 2 Kit, Cisbio), according to the manufacturer's instructions. […] Reported parameters include antagonist potency IC50 (the concentration causing half-maximal inhibition of the agonist response for antagonist compounds) and efficacy (% MPE: percent of the maximal possible effect).

[2] = biological target: T2, hAM2 receptor (CALCRL:RAMP3) (Homo sapiens, UniProt O60896+Q16602); assay: AM2 receptor antagonist activity measured by cAMP assay (HTRF); type: cell-based; conditions: for Emax: % MPE: percent of the maximal possible effect, read-out: hAM2-R Efficacy Antag (%) Ave; for Emax / IC50: agonist human adrenomedullin; for selectivity ratio CGRP/AM2: selectivity ratio for hCGRP over hAM2, calculated from the IC50 values; for IC50: GeneBLAzer CALCRL:RAMP3-CRE-bla Freestyle 293F cells, read-out: hAM2-R IC50 Ave
T2 construct: expressed in transfected cells; host or cells: GeneBLAzer CALCRL:RAMP3-CRE-bla Freestyle 293F
T2 sequence (Q16602 23-461): as the sequence (Q16602 23-461) above
T2 sequence (O60896 24-148): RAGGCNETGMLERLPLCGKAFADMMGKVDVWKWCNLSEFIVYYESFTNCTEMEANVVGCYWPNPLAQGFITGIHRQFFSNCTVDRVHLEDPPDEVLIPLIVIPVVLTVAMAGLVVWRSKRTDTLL
Protocol: Antagonist activity for the adrenomedullin receptor AM2 was determined using the method described in Example 6 above, with the following modifications. Instead of GeneBLAzer® CALCRL:RAMP1-CRE-bla Freestyle™ 293F cells, GeneBLAzer® CALCRL:RAMP3-CRE-bla Freestyle™ 293F cells were used to test activity at hAM2 receptors. The agonist was human adrenomedullin, instead of α-CGRP.
In Table 5, the selectivity ratio for hCGRP over hAM2 is calculated as hCGRP-R IC50/hAM2-R IC50.

Compound	Emax [1]	Emax [2]	selectivity ratio CGRP/AM2 [2]	IC50 [1]	IC50 [2]
CC(C)[C@@H]1NC(=O)[C@H](CC(=O)O)NC(=O)[C@H](CCCNC(=N)N)NC(=O)[C@@H](NC(=O)[C@H](Cc2ccc(O)cc2)NC(=O)[C@H](NC(=O)c2c[nH]cn2)C(C)C)CSSC[C@@H](C(=O)N[C@@H](Cc2cccnc2)C(N)=O)NC(=O)[C@H](Cc2ccccc2)NC(=O)[C@@H]2CCCN2C(=O)CNC1=O [Compound 47] (Imidazole4carbonyl-[dV]YCRDVGPFC[3Pal]-NH2; disulfide 3-10)	100%	99%	1460	–	–
CC(C)NCCC[C@@H]1NC(=O)[C@@H](NC(=O)[C@H](Cc2ccc(O)cc2)NC(=O)[C@H](NC(=O)c2ccccn2)C(C)C)CSSC[C@@H](C(=O)N[C@@H](Cc2cccnc2)C(N)=O)NC(=O)[C@H](Cc2ccc(CO)cc2)NC(=O)[C@@H]2C=CCN2C(=O)CNC(=O)[C@H](C(C)C)NC(=O)[C@H](CC(=O)O)NC1=O [Compound 69, Picolinoyl-D-Val-Tyr-c(Cys-Orn(iPr)-Asp-Val-Gly-Dhp-Phe(4-CH2OH)-Cys)-3Pal-NH2] (Picolinoyl-[dV]YC[Orn(iPr)]DVG[ΔPro][X5]C[3Pal]-NH2; disulfide 3-10)	100%	100%	497	0.13 nM	64 nM
Cc1n[nH]c(C(=O)N[C@@H](C(=O)N[C@@H](Cc2ccc(O)cc2)C(=O)N[C@H]2CSSC[C@@H](C(=O)N[C@@H](Cc3cccnc3)C(N)=O)NC(=O)[C@H](Cc3ccccc3CN)NC(=O)[C@@H]3CCCN3C(=O)CNC(=O)[C@H](C(C)C)NC(=O)[C@H](CC(=O)O)NC(=O)[C@H](CCCNC(=N)N)NC2=O)C(C)C)n1 [Compound 53, 1H-1,2,4-triazole-5-carbonyl(3-Me)-D-Val-Tyr-c(Cys-Arg-Asp-Val-Gly-Pro-Phe(2-CH2NH2)-Cys)-3Pal-NH2] (X2-[dV]YCRDVGP[X3]C[3Pal]-NH2; disulfide 3-10)	100%	98%	8130	0.11 nM	901 nM
CC(C)NCCOCCOCC(=O)NCCC[C@@H]1NC(=O)[C@@H](NC(=O)[C@H](Cc2ccc(O)cc2)NC(=O)[C@H](NC(=O)c2ccc(F)cn2)C(C)C)CSSC[C@@H](C(=O)N[C@@H](Cc2cccnc2)C(N)=O)NC(=O)[C@H](Cc2ccccc2)NC(=O)[C@@H]2CCCN2C(=O)CNC(=O)[C@H](C(C)C)NC(=O)[C@H](CC(=O)O)NC1=O [Compound 13, Picolinoyl(5-F)-D-Val-Tyr-c(Cys-Orn(CO—CH2—(O—(CH2)2)2—NH-iPr)-Asp-Val-Gly-Pro-Phe-Cys)-3Pal-NH2] ({Picolinoyl(5-F)}-[dV]YC[Orn](X8)DVGPFC[3Pal]-NH2; disulfide 3-10)	100%	100%	249	0.1 nM	26 nM
CC(C)NCCC[C@@H]1NC(=O)[C@@H](NC(=O)[C@H](Cc2ccccc2C(N)=O)NC(=O)[C@H](NC(=O)c2ncco2)C(C)C)CSSC[C@@H](C(=O)N[C@@H](Cc2cccnc2)C(N)=O)NC(=O)[C@H](Cc2cccnc2)NC(=O)[C@@H]2C=CCN2C(=O)CNC(=O)[C@H](C(C)C)NC(=O)[C@H](CC(=O)O)NC1=O [Compound 58, Oxazole-2-carbonyl-D-Val-Phe(2-Cbm)-c(Cys-Orn(iPr)-Asp-Val-Gly-Dhp-3Pal-Cys)-3Pal-NH2] (Oxazole2carbonyl-[dV][Phe(2-CONH2)]C[Orn(iPr)]DVG[ΔPro][3Pal]C[3Pal]-NH2; disulfide 3-10)	100%	99%	2588	0.18 nM	476 nM
